Results published in PubChem BioAssay (NCI).
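Cells were grown in 96-well plates and exposed to each compound for 48 hours at five concentrations; endpoints were interpolated linearly between bracketing concentrations, or set to the highest concentration if not reached. At the GI50, growth is halved. Definition used: TGI = concentration required for complete inhibition of growth.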

What was measured:
Assay in all cases: NCI tumour cell line growth inhibition, 48 h
[1] = test system: NCI-H460 lung
[2] = test system: M14 melanoma
[3] = test system: NCI-H522 lung
[4] = test system: NCI/ADR-RES ovarian
[5] = test system: SF-268 CNS
[6] = test system: EKVX NSCLC
[7] = test system: RPMI-8226 leukemia
[8] = test system: HL-60(TB) leukemia
[9] = test system: NCI-H23 lung
[10] = test system: IGROV1 ovarian
[11] = test system: OVCAR-3 ovarian
[12] = test system: HCC-2998 colon
[13] = test system: HCT-116 colon
[14] = test system: UACC-257 melanoma
[15] = test system: NCI-H226 lung
[16] = test system: OVCAR-4 ovarian
[17] = test system: MCF7 breast
[18] = test system: A549 NSCLC
[19] = test system: SW-620 colon
[20] = test system: COLO 205 colon
[21] = test system: OVCAR-8 ovarian
[22] = test system: SK-MEL-28 melanoma
[23] = test system: CAKI-1 renal
[24] = test system: LOX IMVI melanoma
[25] = test system: MDA-MB-231 breast
[26] = test system: CCRF-CEM leukemia
[27] = test system: RXF 393 renal
[28] = test system: BT-549 breast
[29] = test system: HS 578T breast
[30] = test system: UACC-62 melanoma
[31] = test system: MOLT-4 leukemia
[32] = test system: SR leukemia
[33] = test system: K-562 leukemia
[34] = test system: ACHN renal
[35] = test system: SF-539 CNS
[36] = test system: OVCAR-5 ovarian
[37] = test system: UO-31 renal
[38] = test system: SK-OV-3 ovarian
[39] = test system: SNB-75 CNS
[40] = test system: SNB-19 CNS
[41] = test system: PC-3 prostate
[42] = test system: T-47D breast
[43] = test system: DU-145 prostate
[44] = test system: SK-MEL-5 melanoma
[45] = test system: SN12C renal
[46] = test system: MALME-3M melanoma
[47] = test system: 786-0 renal
[48] = test system: SF-295 CNS
[49] = test system: SK-MEL-2 melanoma
[50] = test system: HCT-15 colon
[51] = test system: A498 renal
[52] = test system: HOP-62 NSCLC
[53] = test system: KM12 colon
[54] = test system: HT29 colon
[55] = test system: MDA-MB-435
[56] = test system: U251 CNS
[57] = test system: TK-10 renal
[58] = test system: HOP-92 NSCLC

With `COC(=O)c1cc(-c2cc(OC)c(OC)c(OC)c2)[nH]c1N/N=C/c1c(Cl)cccc1Cl` the GI50 [1] was 1.48 µM, the TGI [1] was 18.3 µM and the GI50 [2] was 8.6 µM. The TGI [2] was 40.1 µM, the GI50 [3] was 3.39 µM and the TGI [3] was 18.6 µM. For the same compound, the GI50 [4] was 1.46 µM, the TGI [4] was 18.4 µM and the GI50 [5] was 1.35 µM. The TGI [5] was 11.2 µM, the GI50 [6] was 8.72 µM and the TGI [6] was 52.9 µM. The GI50 [7] was 1.94 µM, the TGI [7] was greater than 34.4 µM and the TGI [8] was greater than 100 µM. It also gave a GI50 [9] of 1.25 µM, a TGI [9] of 7.78 µM and a GI50 [10] of 2.48 µM. It also gave a TGI [10] of 16.8 µM, a GI50 [11] of 0.57 µM and a TGI [11] of 3.02 µM. The GI50 [12] was 2.36 µM, the TGI [12] was 18.4 µM and the GI50 [13] was 1.11 µM. For the same compound, the TGI [13] was greater than 33 µM, the GI50 [14] was 5.82 µM and the TGI [14] was 35.7 µM. The GI50 [15] was 9.54 µM, the TGI [15] was 40.3 µM and the GI50 [16] was 0.666 µM. For the same compound, the TGI [16] was 2.68 µM, the GI50 [17] was 1.77 µM and the TGI [17] was 53 µM. The GI50 [18] was 4.97 µM, the TGI [18] was 23.3 µM and the GI50 [19] was 1.51 µM. For the same compound, the TGI [19] was greater than 33.8 µM, the GI50 [20] was 4.49 µM and the TGI [20] was greater than 68 µM. The GI50 [21] was 1.48 µM, the TGI [21] was 20.3 µM and the GI50 [22] was 2.8 µM. For the same compound, the TGI [22] was 12.4 µM, the GI50 [23] was 1.61 µM and the TGI [23] was 11.4 µM. For the same compound, the GI50 [24] was 2.67 µM, the TGI [24] was 17.3 µM and the GI50 [25] was 2.75 µM. For the same compound, the TGI [25] was 22.1 µM, the GI50 [26] was 14.1 µM and the TGI [26] was greater than 100 µM. It also gave a GI50 [27] of 7.45 µM, a TGI [27] of 31.4 µM and a GI50 [28] of 2.74 µM. For the same compound, the TGI [28] was 16.3 µM, the GI50 [29] was 1.15 µM and the TGI [29] was greater than 27 µM. It also gave a GI50 [30] of 1.47 µM, a TGI [30] of 16.2 µM and a GI50 [31] of 9.27 µM. For the same compound, the TGI [31] was greater than 56.3 µM, the GI50 [32] was 0.926 µM and the TGI [32] was greater than 100 µM. For the same compound, the TGI [33] was greater than 100 µM, the GI50 [34] was 0.963 µM and the TGI [34] was 9.17 µM. It also gave a GI50 [35] of 1.35 µM, a TGI [35] of 5.47 µM and a GI50 [36] of 2.25 µM. It also gave a TGI [36] of 13.4 µM, a GI50 [37] of 0.837 µM and a TGI [37] of 4.51 µM. The GI50 [38] was 3.07 µM, the TGI [38] was 13.3 µM and the GI50 [39] was 0.941 µM. It also gave a TGI [39] of 4.62 µM, a GI50 [40] of 3.37 µM and a TGI [40] of 21.4 µM. For the same compound, the GI50 [41] was 0.893 µM, the GI50 [42] was 1.92 µM and the TGI [42] was 6.29 µM. For the same compound, the GI50 [43] was 1.85 µM, the TGI [43] was 16.3 µM and the GI50 [44] was 3.17 µM. It also gave a TGI [44] of 17.6 µM, a GI50 [45] of 3.3 µM and a TGI [45] greater than 74.3 µM. The GI50 [46] was 1.47 µM, the TGI [46] was 8.2 µM and the GI50 [47] was 2.03 µM. For the same compound, the TGI [47] was 7.18 µM, the GI50 [48] was 1.01 µM and the TGI [48] was 22.8 µM. It also gave a GI50 [49] of 3.01 µM, a TGI [49] of 17.9 µM and a GI50 [50] of 16 µM. The TGI [50] was greater than 100 µM, the GI50 [51] was 0.683 µM and the TGI [51] was 2.46 µM. The GI50 [52] was 2.1 µM, the TGI [52] was 13 µM and the GI50 [53] was 0.801 µM. It also gave a TGI [53] of 6.94 µM, a GI50 [54] of 3.18 µM and a TGI [54] greater than 82.4 µM. For the same compound, the GI50 [55] was 0.247 µM, the TGI [55] was 8.61 µM and the GI50 [56] was 2.17 µM. The TGI [56] was 10.1 µM, the GI50 [57] was 0.528 µM and the TGI [57] was 2.68 µM. It also gave a GI50 [58] of 0.857 µM and a TGI [58] of 7.48 µM.
`NC(=O)c1oc([N+](=O)[O-])c(-c2ccccc2)c1-c1ccccc1` gave a TGI [1] greater than 100 µM, a TGI [2] of 32.5 µM and a TGI [3] of 31.5 µM. For the same compound, the TGI [4] was 57.2 µM, the TGI [5] was greater than 100 µM and the TGI [6] was 48.4 µM. It also gave a TGI [8] of 70 µM, a TGI [9] of 35 µM and a TGI [10] of 31.5 µM. For the same compound, the TGI [11] was 22.7 µM, the TGI [13] was 36 µM and the TGI [14] was 34.7 µM. The TGI [15] was 28.1 µM, the TGI [16] was 28.5 µM and the TGI [17] was greater than 100 µM. It also gave a TGI [18] of 44.5 µM, a TGI [19] greater than 100 µM and a TGI [20] of 42.1 µM. For the same compound, the TGI [21] was 68.2 µM, the TGI [22] was greater than 100 µM and the TGI [23] was 48.1 µM. It also gave a TGI [24] of 29.1 µM, a TGI [25] of 38.6 µM and a TGI [26] of 38.9 µM. The TGI [27] was greater than 100 µM, the TGI [28] was 40.6 µM and the TGI [29] was 28.2 µM. It also gave a TGI [30] of 21.3 µM, a TGI [31] of 96.6 µM and a TGI [32] of 34.2 µM. It also gave a TGI [33] of 59.6 µM, a TGI [34] of 82 µM and a TGI [35] of 38.1 µM. It also gave a TGI [36] of 63.2 µM, a TGI [37] of 52.2 µM and a TGI [38] greater than 100 µM. The TGI [39] was greater than 100 µM, the TGI [40] was greater than 100 µM and the TGI [41] was 47.9 µM. It also gave a TGI [42] of 50.3 µM, a TGI [43] of 93.4 µM and a TGI [44] of 14.2 µM. The TGI [45] was 5.09 µM, the TGI [46] was 16 µM and the TGI [47] was 89.7 µM. It also gave a TGI [48] of 35.3 µM, a TGI [49] of 36.3 µM and a TGI [50] of 35.4 µM. For the same compound, the TGI [52] was greater than 100 µM, the TGI [53] was 40.9 µM and the TGI [54] was greater than 100 µM. It also gave a TGI [55] of 28.7 µM, a TGI [56] of 71.1 µM and a TGI [57] of 72.8 µM. The TGI [58] was 42 µM.
